In patent publication US9643982B2, “Fused tricyclic heterocyclic compounds as HIV integrase inhibitors” (Merck Sharp & Dohme Corp., priority 2013, dated 2017):

test system: HIV-1 (NL4-3 strain); assay: Multiple round HIV-1 infection assay in MT4-GFP cells (Wild Type Cell Assay); type: cell-based; details: Human immunodeficiency virus 1, NL43; 0 % NHS (serum-free); MT4-GFP cells infected with HIV-1 NL4-3; read-out: Wild Type Cell Assay IP
Method: HIV-1 replication was monitored using MT4-gag-GFP clone D3 (hereafter designate MT4-GFP), which are MT-4 cells modified to harbor a GFP reporter gene, the expression of which is dependent on the HIV-1 expressed proteins tat and rev. Productive infection of an MT4-GFP cell with HIV-1 results in GFP expression approximately 24 h post-infection.
MT4-GFP cells were maintained at 37° C./5% CO2/90% relative humidity in RPMI 1640 supplemented with 10% fetal bovine serum, 100 U/ml penicillin/streptomycin, and 400 μg/ml G418 to maintain the reporter gene. For infections, MT4-GFP cells were placed in the same medium lacking G418 and infected overnight with HIV-1 (NL4-3 strain) virus at an approximate multiplicity of infection of 0.01 in the same incubation conditions.
Cells were then washed and resuspended in either RPMI 1640 supplemented with 10% normal human serum (NHS) or without NHS at 1.6×10^5 cells/mL (10% NHS or serum-free conditions) or in 100% normal human serum at 2×10^5 cells/mL (100% NHS conditions). Compound plates were prepared by dispensing compounds dissolved in DMSO into wells of 384 well poly D lysine-coated plates (0.2 μl/well) using an ECHO acoustic dispenser. Each compound was tested in a 10 point serial 3-fold dilution (typical final concentrations: 8.4 μM-0.42 nM). Controls included no inhibitor (DMSO only) and a combination of three antiviral agents (efavirenz, indinavir, and the integrase strand transfer inhibitor L-002254051 at final concentrations of 4 μM each). Cells were added (50 μL/well) to compound plates and the infected cells were maintained at 37° C./5% CO2/90% relative humidity.

SMILES | EC50
COCCN1C(=O)c2c(O)c(=O)c(C(=O)NCc3ccc(F)cc3F)c3n2[C@H](CC3)[C@@H]1OC (single isomer, unassigned) [Compound 27] | 2.3 nM
CCN1C[C@@H]2C[C@@H](OC)c3c(C(=O)NCc4ccc(F)c(Cl)c4F)c(=O)c(O)c(n32)C1=O (single isomer, unassigned) [Compound 34] | 2.9 nM
CCN1CC2CCc3c(C(=O)NCc4ccc(F)cc4F)c(=O)c(O)c(n32)C1=O (racemic) [Compound 18, N-(2,4-difluorobenzyl)-2-ethyl-8-hydroxy-1,7-dioxo-2,3,3a,4,5,7-hexahydro-1H-pyrazino[2,1,6-cd]indolizine-6-carboxamide] | 2.6 nM
CC(C)(O)CN1C[C@@H]2CCc3c(C(=O)NCc4ccc(F)c(F)c4F)c(=O)c(O)c(n32)C1=O (single isomer, unassigned) [Compound 23] | 3.8 nM
O=C(NCc1ccc(F)c(F)c1F)c1c2n3c(c(O)c1=O)C(=O)N(CC1CC1)C[C@H]3CC2 (single isomer, unassigned) [Compound 21] | 3.1 nM
CCO[C@H]1[C@H]2CCc3c(C(=O)NCc4ccc(F)cc4F)c(=O)c(O)c(n32)C(=O)N1CC (single isomer, unassigned) [Compound 28] | 2.1 nM
COCCN1CC2CCc3c(C(=O)NCc4c(F)cc(F)cc4OC)c(=O)c(O)c(n32)C1=O (racemic) [Compound 19] | 4.4 nM
COc1ccc(CN2CC3COCc4c(C(=O)NCc5ccc(F)cc5F)c(=O)c(O)c(n43)C2=O)cc1 (racemic) [Compound 8] | 23 nM
CO[C@@H]1C[C@H]2CN(CC3CC3)C(=O)c3c(O)c(=O)c(C(=O)NCc4ccc(F)cc4F)c1n32 (single isomer, unassigned) [Compound 33] | 2.3 nM
COCCN1C[C@H]2C[C@H](OC)c3c(C(=O)NCc4ccc(F)cc4F)c(=O)c(O)c(n32)C1=O (single isomer, unassigned) [Compound 32] | 2.3 nM
CCN1CC2CC(C)c3c(C(=O)NCc4ccc(F)c(F)c4F)c(=O)c(O)c(n32)C1=O (single isomer, unassigned) [Compound 37] | 1.1 nM
O=C(NCc1ccc(F)cc1F)c1c2n3c(c(O)c1=O)C(=O)N(CCC(F)(F)F)C[C@@H]3CC2 (single isomer, unassigned) [Compound 20] | 3.8 nM
COCCN1CC2COCc3c(C(=O)NCc4ccc(F)cc4F)c(=O)c(O)c(n32)C1=O (racemic) [Compound 5] | 9.2 nM
CCN1C(=O)c2c(O)c(=O)c(C(=O)NCc3ccc(F)c(Cl)c3)c3n2[C@@H](CC3)[C@H]1OC (single isomer, unassigned) [Compound 26] | 3.2 nM
CO[C@H](C)CN1C[C@H]2CCc3c(C(=O)NCc4ccc(F)cc4F)c(=O)c(O)c(n32)C1=O (single isomer, unassigned) [Compound 22] | 2.8 nM
CCO[C@@H]1C[C@H]2CN(CC)C(=O)c3c(O)c(=O)c(C(=O)NCc4ccc(F)cc4F)c1n32 (single isomer, unassigned) [Compound 38] | 1.9 nM

SMILES | EC50
CC(C)N1C[C@@H]2COCc3c(C(=O)NCc4ccc(F)cc4F)c(=O)c(O)c(n32)C1=O (single isomer, unassigned) [Compound 3] | 13 nM
O=C(NCc1ccc(F)cc1F)c1c2n3c(c(O)c1=O)C(=O)N(Cc1cccnc1)CC3COC2 (racemic) [Compound 7] | 9.6 nM
COCCC(C)N1CC2COCc3c(C(=O)NCc4ccc(F)cc4F)c(=O)c(O)c(n32)C1=O (centres unmarked) [Compound 6] | 24 nM
CNC(=O)c1c2n3c(c(O)c1=O)C(=O)N(Cc1ccc(F)cc1)CC3CC2 (racemic) [Compound 17, 2-(4-fluorobenzyl)-8-hydroxy-N-methyl-1,7-dioxo-2,3,3a,4,5,7-hexahydro-1H-pyrazino[2,1,6-cd]indolizine-6-carboxamide] | 35 nM
CCN1C[C@H]2C[C@@H](OC)c3c(C(=O)NCc4ccc(F)cc4F)c(=O)c(O)c(n32)C1=O (single isomer, unassigned) [Compound 31] | 3.8 nM
CCN1CC2CC(OC)c3c(C(=O)NCc4ccc(F)cc4F)c(=O)c(O)c(n32)C1=O (racemic) [Compound 29] | 1.2 nM
CCN1CC2CC(C)c3c(C(=O)NCc4ccc(F)cc4F)c(=O)c(O)c(n32)C1=O (single isomer, unassigned) [Compound 35, N-(2,4-difluorobenzyl)-2-ethyl-9-hydroxy-6-methyl-1,8-dioxo-2,3,3a,5,6,8-hexahydro-1H-pyrazino[2,1,6-cd]indolizine-7-carboxamide] | 1.2 nM
COCCN1CC2CC(C)c3c(C(=O)NCc4ccc(F)cc4F)c(=O)c(O)c(n32)C1=O (single isomer, unassigned) [Compound 36] | 3.9 nM
CC(C)N1CC2COCc3c(-c4cnn(Cc5ccc(F)cc5F)c4)c(=O)c(O)c(n32)C1=O (racemic) [Compound 14] | 323 nM
CCN1CC2CC(O)c3c(C(=O)NCc4ccc(F)cc4F)c(=O)c(O)c(n32)C1=O (racemic) [Compound 24, N-(2,4-difluorobenzyl)-2-ethyl-5,8-dihydroxy-1,7-dioxo-2,3,3a,4,5,7-hexahydro-1H-pyrazino[2,1,6-cd]indolizine-6-carboxamide] | 2.2 nM
CC(C)N1C[C@@H]2COCc3c(-c4cnn(Cc5ccc(F)cc5F)c4)c(=O)c(O)c(n32)C1=O (single isomer, unassigned) [Compound 15] | 234 nM
CC(C)N1CC2C(=O)N(C)Cc3c(C(=O)NCc4ccc(F)cc4F)c(=O)c(O)c(n32)C1=O (racemic) [Compound 16, N-(2,4-difluorobenzyl)-9-hydroxy-2-isopropyl-5-methyl-1,4,8-trioxo-1,2,3,3a,4,5,6,8-octahydro-2,3a1,5-triazaphenalene-7-carboxamide] | 17 nM
CN1CC2COCc3c(C(=O)NCc4ccc(F)cc4F)c(=O)c(O)c(n32)C1=O (racemic) [Compound 1] | 9.2 nM
CC(C)N1C[C@@H]2COCc3c(-c4nnc(Cc5ccc(F)cc5F)s4)c(=O)c(O)c(n32)C1=O (single isomer, unassigned) [Compound 13, 9-(5-(2,4-difluorobenzyl)-1,3,4-thiadiazol-2-yl)-7-hydroxy-5-isopropyl-3,3a,4,5-tetrahydro-1H-2-oxa-3a1,5-diazaphenalene-6,8-dione] | 5 nM
CCN1C[C@@H]2C[C@@H](OC)c3c(C(=O)NCc4ccc(F)cc4F)c(=O)c(O)c(n32)C1=O (single isomer, unassigned) [Compound 30] | 1 nM
CCN1C(=O)c2c(O)c(=O)c(C(=O)NCc3ccc(F)cc3F)c3n2C(CC3)C1OC (racemic) [Compound 25] | 1.9 nM

same assay, conditions: Human immunodeficiency virus 1, NL43; 10 % NHS (normal human serum); MT4-GFP cells infected with HIV-1 NL4-3; read-out: Wild Type Cell Assay IP

SMILES | EC50
Cc1c(F)ccc(CNC(=O)c2c3n4c(c(O)c2=O)C(=O)N(C(C)C)CC4COC3)c1F (racemic) [Compound 11] | 116 nM
CC(C)N1CC2COCc3c(C(=O)NCc4ccc(F)cc4F)c(=O)c(O)c(n32)C1=O (racemic) [Compound 2] | 33 nM
CC(C)N1CC2COCc3c(C(=O)NCc4ccc(F)c(Cl)c4)c(=O)c(O)c(n32)C1=O (racemic) [Compound 10] | 100 nM
CC(C)N1C[C@@H]2COCc3c(C(=O)NCc4ccc(F)c(F)c4F)c(=O)c(O)c(n32)C1=O (single isomer, unassigned) [Compound 9] | 20 nM
CC(C)CN1CC2COCc3c(C(=O)NCc4ccc(F)cc4F)c(=O)c(O)c(n32)C1=O (racemic) [Compound 4] | 21 nM
CC(C)N1CC2COCc3c(C(=O)NCc4ccc(F)c(Cl)c4F)c(=O)c(O)c(n32)C1=O (racemic) [Compound 12] | 50 nM
